Article PMC5845869 (Frontiers in Microbiology, 2018)
Values after ≈ are worked out from the molar mass of the structure shown. Where two headings read alike, the source gives them in different places. Ends that are not written are not given here. Peptide text beside a SMILES is read from it.

Key:
[1] = system: Saccharomyces cerevisiae SZMC 0644
Experimental: (§1) Susceptibility tests were performed in low ionic strength broth medium (LCM: 0.5% glucose, 0.25% yeast extract, 0.0125% peptone (w/v)) and in RPMI 1640 medium (Sigma-Aldrich, St Louis, MO, USA) supplemented with 0.03% (w/v) L-glutamine and buffered to pH 7.0 with 0.165 M 4-morpholinopropanesulfonic acid (Sigma-Aldrich, St Louis, MO, USA).
(§2) Antifungal susceptibility tests were performed with nNFAP2, rNFAP2, and sNFAP2 and its peptide fragments in LCM medium against yeast isolates (10^5 cells ml^−1) according to the broth microdilution method described by Tóth et al. ([2016]). Final drug concentration ranged from 25 to 0.098 μg ml^−1 for rNFAP2 and sNFAP2, and from 100 to 6.25 μg ml^−1 for the synthetic peptide fragments. The rNFAP2 was tested against nine yeast isolates, while the sNFAP2 and the synthetic peptide fragments against C. albicans ATCC 10231, C. krusei CBS 573, C. parapsilosis CBS 604, and S. cerevisiae SZMC 0644.
(§3) LCM plates were incubated at 30°C, while RPMI 1640 plates at 35°C for 48 h without shaking, then the absorbance (OD620) was measured with a microtiter plate reader (SPECTROstar Nano, BMG Labtech, Ortenberg, Germany) after resuspension of the cultures with pipette. The absorbance of the untreated control cultures was referred to 100% growth in each case.
(§4) All susceptibility tests were repeated at least two times in three replicates.

Candida krusei CBS 573 = system: Candida krusei CBS 573
Experimental: as §1, §2, §3, §4

[2] = system: Candida albicans ATCC 10231
Experimental: as §1, §2, §3, §4

[3] = system: Candida parapsilosis CBS 604
Experimental: as §1, §2, §3, §4

[4] = system: C. albicans ATCC 10231 cells; assay: Propidium iodide (PI) staining, plasma membrane disruption; type: cell-based, Candida albicans; conditions: treatment at MIC in LCM, 10 min, 30°C; 5 μg ml^−1 PI; fluorescence microscopy
Experimental: After the treatment, cells were washed with LCM, and then stained with 5 μg ml^−1 PI for 10 min at room temperature in the dark, and then they were washed again with LCM and resuspended in final volume of 100 μl LCM. Cells treated with 70% (v/v) ethanol for 10 min at 4°C were used as positive staining control. Untreated cells were used as negative staining control.
Yeast cells were visualized by light and fluorescence microscopy (Carl Zeiss Axiolab LR 66238C; Zeiss, Oberkochen, Germany) and photographed with a microscope camera (Zeiss AxioCam ERc 5s; Zeiss, Oberkochen, Germany).

[5] = Thermal unfolding followed by ECD spectroscopy; type: physicochemical; conditions: for thermal denaturation reversibility: ECD at 95°C, then re-measured after cooling, 5 min at 25°C; for Tm (melting temperature of the native protein structure): ECD at 228 nm, 25 to 95°C at 1°C min^−1, approx. 0.1 mg ml^−1 in H2O, inflection of sigmoidal fit; for native fold remains intact up to: thermal unfolding followed by ECD
Experimental: ECD spectroscopic measurements were performed using a Jasco-J815 spectropolarimeter (JASCO Corporation, Tokyo, Japan), in the far-UV range (185–260 nm). Protein samples were dissolved in pure H2O in approximately 0.1 mg ml^−1 concentration and measured in a 0.1 cm pathlength quartz cuvette. First, ECD spectra of samples were recorded at 25°C with a scan speed of […]. […] The system was allowed to equilibrate for 1 min before measurements were taken at each temperature point.
The obtained melting curves were fitted with an inverse sigmoidal function of which inflection point designated the melting temperature (Tm) of the native protein structure.
ECD spectra were also recorded at 95°C, the final temperature of the thermal unfolding experiments, then samples were allowed to cool and measured again after 5 min of equilibration at 25°C. The reported spectra are accumulations of 10 scans, from which the similarly recorded, corresponding solvent spectrum was subtracted. Data are given as molar ellipticities. Accurate protein sample concentrations for the corrections of ECD spectra were determined using analytical RP-HPLC.

[6] = system: Candida lusitaniae CBS 6936; assay: MIC, broth microdilution in LCM; type: cell-based; conditions: 10^5 cells ml^−1, 48 h, 30°C, MIC = growth ≤ 5% (OD620)
Experimental: as §1, §2, §3, §4

[7] = system: Candida guilliermondii CBS 566; assay: MIC, broth microdilution in LCM; type: cell-based; conditions: 10^5 cells ml^−1, 48 h, 30°C, MIC = growth ≤ 5% (OD620)
Experimental: as §1, §2, §3, §4

[8] = system: Schizosaccharomyces pombe SZMC 0142; assay: MIC, broth microdilution in LCM; type: cell-based; conditions: 10^5 cells ml^−1, 48 h, 30°C, MIC = growth ≤ 5% (OD620)
Experimental: as §1, §2, §3, §4

[9] = system: Candida tropicalis CBS 94; assay: MIC, broth microdilution in LCM; type: cell-based; conditions: 10^5 cells ml^−1, 48 h, 30°C, MIC = growth ≤ 5% (OD620)
Experimental: as §1, §2, §3, §4

Candida glabrata CBS 138 = assay: MIC, broth microdilution in LCM; type: cell-based; conditions: 10^5 cells ml^−1, 48 h, 30°C, MIC = growth ≤ 5% (OD620)
Experimental: as §1, §2, §3, §4

[10] = LCM, 10^5 cells ml^−1, 48 h, 30°C, MIC = growth ≤ 5% (OD620)

Compound | MIC ([1]; SZMC 0644, 48 h) | MIC (Candida krusei CBS 573; CBS 573, 48 h) | MIC ([2]; ATCC 10231, 48 h) | MIC ([3]; CBS 604, 48 h) | Plasma membrane disruption (PI staining) [4] | also measured
CC[C@H](C)[C@H](NC(=O)[C@H](CS)NC(=O)[C@H](CC(N)=O)NC(=O)[C@H](CC(C)C)NC(=O)[C@H](CCC(N)=O)NC(=O)CNC(=O)CNC(=O)[C@H](CCC(N)=O)NC(=O)[C@H](Cc1c[nH]c2ccccc12)NC(=O)[C@H](CCC(=O)O)NC(=O)[C@H](CS)NC(=O)[C@H](CCCCN)NC(=O)CNC(=O)[C@H](CO)NC(=O)[C@@H](NC(=O)[C@@H](NC(=O)[C@H](CCCCN)NC(=O)[C@H](CO)NC(=O)[C@H](CCCCN)NC(=O)[C@H](CC(=O)O)NC(=O)[C@H](CO)NC(=O)[C@@H]1CCCN1C(=O)CNC(=O)[C@H](CO)NC(=O)[C@H](Cc1c[nH]cn1)NC(=O)[C@H](Cc1ccc(O)cc1)NC(=O)[C@@H](N)CCCCN)C(C)C)[C@@H](C)CC)C(=O)N[C@@H](C)C(=O)N[C@H](C(=O)O)[C@@H](C)O [Fr-1] (H-KYHSGPSDKSKVISGKCEWQGGQLNCIAT-OH; N-terminus and C-terminus assumed) | 100 µg/mL (≈ 32 µM) | 100 µg/mL (≈ 32 µM) | >100 µg/mL | >100 µg/mL |  | 
CC[C@H](C)[C@H](N)C(=O)N[C@@H](C)C(=O)N[C@H](C(=O)N[C@@H](CO)C(=O)N1CCC[C@H]1C(=O)N[C@@H](Cc1ccc(O)cc1)C(=O)N[C@@H](Cc1ccc(O)cc1)C(=O)N[C@@H](C)C(=O)N[C@@H](CS)C(=O)N[C@@H](CC(N)=O)C(=O)N[C@@H](CS)C(=O)N1CCC[C@H]1C(=O)N[C@@H](CC(N)=O)C(=O)N[C@@H](CC(N)=O)C(=O)N[C@@H](CS)C(=O)N[C@@H](CCCCN)C(=O)N[C@@H](Cc1c[nH]cn1)C(=O)N[C@@H](CCCCN)C(=O)N[C@@H](CCCCN)C(=O)NCC(=O)N[C@@H](CO)C(=O)NCC(=O)N[C@@H](CS)C(=O)O)[C@@H](C)O [Fr-2] (H-IATSPYYACNCPNNCKHKKGSGC-OH; N-terminus and C-terminus assumed) |  |  |  |  | prompt plasma membrane disruption effect | 
CC[C@H](C)[C@H](NC(=O)[C@H](CS)NC(=O)[C@H](CC(N)=O)NC(=O)[C@H](CC(C)C)NC(=O)[C@H](CCC(N)=O)NC(=O)CNC(=O)CNC(=O)[C@H](CCC(N)=O)NC(=O)[C@H](Cc1c[nH]c2ccccc12)NC(=O)[C@H](CCC(=O)O)NC(=O)[C@H](CS)NC(=O)[C@H](CCCCN)NC(=O)CN)C(=O)N[C@@H](C)C(=O)N[C@H](C(=O)O)[C@@H](C)O [Fr-3] (H-GKCEWQGGQLNCIAT-OH; N-terminus and C-terminus assumed) | >100 µg/mL | >100 µg/mL | >100 µg/mL | >100 µg/mL | did not disrupt the plasma membrane | 
NCCCC[C@H](NC(=O)[C@H](CCCCN)NC(=O)[C@H](Cc1c[nH]cn1)NC(=O)[C@H](CCCCN)NC(=O)[C@H](CS)NC(=O)[C@H](CC(N)=O)NC(=O)[C@@H](N)CC(N)=O)C(=O)NCC(=O)N[C@@H](CO)C(=O)NCC(=O)N[C@@H](CS)C(=O)O [Fr-4] (H-NNCKHKKGSGC-OH; N-terminus and C-terminus assumed) | 50 µg/mL (≈ 42.5 µM) | 50 µg/mL (≈ 42.5 µM) | 50 µg/mL (≈ 42.5 µM) | 50 µg/mL (≈ 42.5 µM) | prompt plasma membrane disruption effect | 
CC[C@H](C)[C@H](N)C(=O)N[C@@H](C)C(=O)N[C@H](C(=O)N[C@@H](CO)C(=O)N1CCC[C@H]1C(=O)N[C@@H](Cc1ccc(O)cc1)C(=O)N[C@@H](Cc1ccc(O)cc1)C(=O)N[C@@H](C)C(=O)N[C@@H](CS)C(=O)N[C@@H](CC(N)=O)C(=O)N[C@@H](CS)C(=O)N1CCC[C@H]1C(=O)O)[C@@H](C)O [Fr-6] (H-IATSPYYACNCP-OH; N-terminus and C-terminus assumed) | >100 µg/mL | >100 µg/mL | >100 µg/mL | >100 µg/mL |  | 
CC[C@H](C)[C@H](N)C(=O)N[C@@H](C)C(=O)NCC(=O)N[C@@H](C)C(=O)N[C@@H](Cc1c[nH]cn1)C(=O)N[C@@H](CCCCN)C(=O)N[C@@H](CS)C(=O)N[C@@H](CCCCN)C(=O)N1CCC[C@H]1C(=O)N[C@@H](CS)C(=O)N[C@@H](Cc1ccc(O)cc1)C(=O)NCC(=O)N[C@@H](Cc1ccc(O)cc1)C(=O)N[C@@H](CCCCN)C(=O)N[C@H](C(=O)N[C@@H](CC(N)=O)C(=O)N[C@@H](CO)C(=O)N[C@@H](CS)C(=O)N[C@@H](CS)C(=O)N[C@@H](CC(N)=O)C(=O)N[C@@H](CO)C(=O)N1CCC[C@H]1C(=O)N[C@@H](CC(N)=O)C(=O)O)[C@@H](C)O [Sh-Fr-2] (H-IAGAHKCKPCYGYKTNSCCNSPN-OH; N-terminus and C-terminus assumed) |  |  |  |  | prompt plasma membrane disruption effect | 
NCCCC[C@H](NC(=O)CNC(=O)[C@H](CCCCN)NC(=O)[C@H](CC(N)=O)NC(=O)[C@H](CS)NC(=O)[C@@H](N)CS)C(=O)N[C@@H](CC(N)=O)C(=O)N[C@@H](CCCCN)C(=O)NCC(=O)N[C@@H](CO)C(=O)N[C@@H](Cc1c[nH]cn1)C(=O)O [Sh-Fr-4] (H-CCNKGKNKGSH-OH; N-terminus and C-terminus assumed) | 50 µg/mL (≈ 42.5 µM) | 50 µg/mL (≈ 42.5 µM) | 50 µg/mL (≈ 42.5 µM) | 50 µg/mL (≈ 42.5 µM) | prompt plasma membrane disruption effect | 
IATSPYYACNCPNNCKHKKGSGCKYHSGPSDKSKVISGKCEWQGGQLNCIAT (disulfide (positions not given here)) [nNFAP2] |  |  |  |  |  | thermal denaturation reversibility [5]: reversible; Tm (melting temperature of the native protein structure) [5]: 72.92 °C; native fold remains intact up to [5]: approximately 70 °C; MIC [1, 10]: 3.125 µg/mL; MIC (Candida krusei CBS 573; [10]): 12.5 µg/mL; MIC [2, 10]: 6.25 µg/mL; MIC [3, 10]: 1.56 µg/mL; MIC [6]: 3.125 µg/mL; MIC [7]: 1.56 µg/mL; MIC [8]: 1.56 µg/mL; MIC [9]: 1.56 µg/mL; MIC (Candida glabrata CBS 138): 1.56 µg/mL
IATSPYYACNCPNNCKHKKGSGCKYHSGPSDKSKVISGKCEWQGGQLNCIAT (disulfide (positions not given here)) [sNFAP2] |  |  |  |  |  | thermal denaturation reversibility [5]: reversible; Tm (melting temperature of the native protein structure) [5]: 74.94 °C; native fold remains intact up to [5]: approximately 70 °C; MIC [1, 10]: 3.125 µg/mL; MIC (Candida krusei CBS 573; [10]): 12.5 µg/mL; MIC [2, 10]: 6.25 µg/mL; MIC [3, 10]: 1.56 µg/mL
KYHSGPSDKSKVIS [Fr-5] | >100 µg/mL | >100 µg/mL | >100 µg/mL | >100 µg/mL |  | 
